Our source for the Distribution of radioactivity, Radioactivity and Lipid-soluble radioactivity values is ChEMBL document CHEMBL1128242, “Polyiodinated triglyceride analogs as potential computed tomography imaging agents for the liver” (J Med Chem, 1995).

Holding throughout (assay type): ADME, organism-based
In data set [1] the test system is Rattus norvegicus. Put plainly: Distribution of radioactivity was determined in blood at 30 min after intravenous administration of 1,3-Disubstituted Triacylglycerols in rats. The conditions noted are these: in vivo, 0.5 h.
Data set [2] relates to Rattus norvegicus. Description: Distribution of radioactivity was determined in blood at 3h after intravenous administration of 1,3-Disubstituted Triacylglycerols in rats. Conditions: in vivo.
Data set [3] concerns Rattus norvegicus. Put plainly: Distribution of radioactivity was determined in plasma at 3h after intravenous administration of [125I]-labeled 2-oleoglycerol 1,3-Bis-[omega-(3-amino-2,4,6-triiodophenyl)alkanoates] in rats. The conditions noted are these: in vivo.
The subject of data set [4] is Rattus norvegicus. Put plainly: Distribution of radioactivity was determined in spleen at 30 min after intravenous administration of 1,3-Disubstituted Triacylglycerols in rats. Conditions: in vivo, 0.5 h.
Data set [5] relates to Rattus norvegicus. Description: Distribution of radioactivity was determined in spleen at 30 min after intravenous administration of [125I]-labeled 2-oleoglycerol 1,3-Bis-[omega-(3-amino-2,4,6-triiodophenyl)alkanoates] in rats. Conditions: in vivo, 0.5 h.
Data set [6] relates to Rattus norvegicus. Description: Distribution of radioactivity was determined in blood at 24 hr after intravenous administration of 1,3-Disubstituted Triacylglycerols in rats. The conditions noted are these: in vivo.
Data set [7] has as its system Rattus norvegicus. Put plainly: Distribution of radioactivity was determined in blood at 24 hr after intravenous administration of [125I]-labeled 2-oleoglycerol 1,3-Bis-[omega-(3-amino-2,4,6-triiodophenyl)alkanoates] in rats. Conditions: in vivo.
Data set [8] relates to Rattus norvegicus. Description: Distribution of radioactivity was determined in kidney at 30 min after intravenous administration of [125I]-labeled 2-oleoglycerol 1,3-Bis-[omega-(3-amino-2,4,6-triiodophenyl)alkanoates] in rats. The conditions noted are these: in vivo, 0.5 h.
The test system of data set [9] is Rattus norvegicus. Put plainly: Polyacrylamide Gel Electrophoresis (PAGE) to determined the concentration of low density lipoprotein (LDL) in rats after iv administration of [125I]-labeled 2-Oleolyl 1,3-disubstituted triglycerols was reported. The conditions noted are these: in vivo.
Data set [10] relates to Rattus norvegicus. Put plainly: Polyacrylamide Gel Electrophoresis (PAGE) to determined the concentration of stacking gel(SG) in rats after iv administration of [125I]-labeled 2-Oleolyl 1,3-disubstituted triglycerols was reported. Conditions: in vivo.
Data set [11] relates to Rattus norvegicus. Description: Distribution of radioactivity was determined in liver at 3h after intravenous administration of [125I]-labeled 2-oleoglycerol 1,3-Bis-[omega-(3-amino-2,4,6-triiodophenyl)alkanoates] in rats. The conditions noted are these: in vivo.
Data set [12] has as its system Rattus norvegicus. Description: Distribution of radioactivity was determined in plasma at 24 hr after intravenous administration of [125I]-labeled 2-oleoglycerol 1,3-Bis-[omega-(3-amino-2,4,6-triiodophenyl)alkanoates] in rats. Further details: unit not given here. Conditions: in vivo.
Data set [13] has as its system Rattus norvegicus. Put plainly: Analysis of lipid-soluble radioactivity in plasma 0.5 hour after iv administration of [125I]-labeled 2-Oleoyl 1,3-disubstituted Triacylglycerols expressed as %parent compound (by TLC with authentic [125I]-labeled standard) from rat. The conditions noted are these: in vivo.

For the molecule `CCCCCCCC/C=C/CCCCCCCC(=O)OC(COC(=O)CCCc1c(I)cc(I)c(N)c1I)COC(=O)CCCc1c(I)cc(I)c(N)c1I`, the Distribution of radioactivity in data set [1] stood at 5.8 % dose/organ; in data set [2], 0.9 % dose/organ; in data set [3], 0.13 % dose/g; in data set [4], 13.7 % dose/organ; in data set [5], 31.7 % dose/g; in data set [6], 1.5 % dose/organ. Further, the Distribution of radioactivity in data set [7] was found to be 0.15 % dose/g; in data set [8], 0.14 % dose/g; in data set [11], 13.8 % dose/g; in data set [12], 0.24. Moreover, the Radioactivity in data set [9] was determined as 3.2%; in data set [10], 80.9%. The Lipid-soluble radioactivity in [13] is recorded as 85.8.

With `CCCCCCCC/C=C/CCCCCCCC(=O)OC(COC(=O)CCc1c(I)cc(I)c(N)c1I)COC(=O)CCc1c(I)cc(I)c(N)c1I`, the Distribution of radioactivity in data set [1] came to 5.1 % dose/organ; in [2], 0.7 % dose/organ; in data set [3] it was 0.09 % dose/g; in data set [4] it was 13 % dose/organ; in [5] it was 27.6 % dose/g; in [6] it was 0.4 % dose/organ. For the same molecule, the Distribution of radioactivity in data set [7] turned out to be 0.04 % dose/g; in data set [8], 0.11 % dose/g; in [11] it was 10.9 % dose/g; in [12] it was 0.05. The Radioactivity is on record as 8.3% in data set [9] and 67.3% in data set [10].
